Experiments:
wild type mCOX-2 [1] = target: T1, wild type mCOX-2 (Mus musculus, UniProt Q05769); experiment: Activity recovery assay (reversibility of COX inhibition); type: biochemical, murine; conditions: 10 μM inhibitor, 50 μM AA
T1 construct: made in house; host or cells: Sf9 insect cells (baculovirus, pVL1393)
T1 sequence (Q05769 18-604): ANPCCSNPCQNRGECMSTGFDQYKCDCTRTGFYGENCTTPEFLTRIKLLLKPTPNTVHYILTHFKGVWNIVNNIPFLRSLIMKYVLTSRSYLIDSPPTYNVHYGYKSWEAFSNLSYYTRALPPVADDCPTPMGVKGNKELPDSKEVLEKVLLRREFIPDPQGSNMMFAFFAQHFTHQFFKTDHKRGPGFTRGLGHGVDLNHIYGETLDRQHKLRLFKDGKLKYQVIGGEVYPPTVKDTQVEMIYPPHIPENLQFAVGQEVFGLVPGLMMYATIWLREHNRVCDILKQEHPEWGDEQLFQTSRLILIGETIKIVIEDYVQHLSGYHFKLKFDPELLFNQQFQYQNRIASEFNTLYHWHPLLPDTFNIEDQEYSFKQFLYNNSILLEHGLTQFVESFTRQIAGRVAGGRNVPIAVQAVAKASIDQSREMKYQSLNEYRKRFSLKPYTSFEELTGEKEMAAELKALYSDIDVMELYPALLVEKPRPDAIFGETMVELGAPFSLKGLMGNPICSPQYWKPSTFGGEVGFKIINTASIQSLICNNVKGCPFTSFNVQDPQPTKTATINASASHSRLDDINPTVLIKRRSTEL
Method: The reversibility of the second step in equation (1) could be directly evaluated by the amount of enzyme activity recovered after a prolonged incubation time with substrate. […] The enzymes were pre-incubated for 20 minutes with DMSO or 10 μM INDO, prior to the addition of 50 μM AA. After addition of AA, the oxygenation reactions were allowed to proceed for varying lengths of time. As the reaction time increased, the extent of inhibition decreased if INDO binding was reversible. The time course for recovery of AA oxygenation was fit to a single exponential (FIG. 3A).
The reversibility of DM-INDO inhibition was evaluated similarly to INDO using the activity recovery assay (FIG. 3). The experiments and analysis were performed as described above.

wild type oCOX-1 = target: T2, wild type oCOX-1 (Ovis aries, UniProt P05979); experiment: Time-dependent IC50 COX inhibition assay; type: biochemical, ovine
T2 construct: Ram seminal vesicles were purchased from Oxford Biomedical Research; tissue Oxford Biomedical Research; host or cells: ram seminal vesicles
T2 sequence (P05979 25-600): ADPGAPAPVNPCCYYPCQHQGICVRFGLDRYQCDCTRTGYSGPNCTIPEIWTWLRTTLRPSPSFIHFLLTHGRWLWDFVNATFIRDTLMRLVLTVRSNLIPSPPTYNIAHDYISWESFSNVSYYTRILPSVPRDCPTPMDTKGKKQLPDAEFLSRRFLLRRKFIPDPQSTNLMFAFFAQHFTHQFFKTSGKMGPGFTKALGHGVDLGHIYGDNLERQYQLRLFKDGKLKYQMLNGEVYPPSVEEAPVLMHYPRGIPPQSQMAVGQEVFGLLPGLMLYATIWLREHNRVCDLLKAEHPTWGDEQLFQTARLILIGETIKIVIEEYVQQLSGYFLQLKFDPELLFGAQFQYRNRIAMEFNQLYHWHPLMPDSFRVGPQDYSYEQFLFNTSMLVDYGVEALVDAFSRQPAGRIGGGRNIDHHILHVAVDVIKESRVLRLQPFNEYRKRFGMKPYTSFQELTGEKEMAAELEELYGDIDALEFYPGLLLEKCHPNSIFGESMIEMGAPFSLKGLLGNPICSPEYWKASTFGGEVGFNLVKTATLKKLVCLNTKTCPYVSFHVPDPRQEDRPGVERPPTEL
Method: These mutated genes were used to assemble baculoviral constructs for large-scale expression in Sf9 cells. Purification of the expressed COX-2 protein was performed through traditional cellular fractionation and classical column chromatography. Activity or inhibition assays were performed in 100 mM Tris-HCl buffer containing 500 μM phenol, with hematin-reconstituted protein. Quantification of cyclooxygenase activity was performed by monitoring substrate (arachidonate or oxygen) consumption in a thermostatted cuvette at 37° C. using a polarographic electrode with a 5300 oxygen monitor (Yellow Springs Instrument Co. Inc., Yellow Springs, Ohio, United States of America). All inhibitors and substrates were solubilized in dimethyl sulfoxide (DMSO). Activity or inhibition assays were performed in 100 mM Tris-HCl buffer containing 500 μM phenol, with hematin-reconstituted protein. Maximal reaction velocity data were obtained from the linear portion of the oxygen uptake curves, and the data were analyzed by nonlinear regression with Prism 4.0 (GraphPad Software, San Diego, Calif., United States of America).
Time-dependent inhibition reactions were performed by pre-incubating the inhibitor and enzyme for 17 minutes at 25° C., followed by 3 minutes at 37° C. prior to the addition of 50 μM [1-^14C]-AA for 30 seconds at 37° C. Assays were terminated and analyzed for substrate consumption by thin layer chromatography as previously described (Kalgutkar et al., 2000a).
Maximal reaction velocity data were obtained from the linear portion of the oxygen uptake curves, and the data were analyzed by nonlinear regression. Instantaneous inhibition assays were performed with substrate and inhibitor added prior the initiation of the reaction by addition of protein. […]
Assays were terminated and analyzed for substrate consumption by thin layer chromatography. […] All reactions were performed with [1-^14C]-AA for 30 seconds at 37° C.; reactions were terminated and analyzed as described above. […]

wild type mCOX-2 [2] = target: T1, wild type mCOX-2; experiment: Kinetics of time-dependent COX inhibition; type: biochemical, murine
Method: Assays were terminated and analyzed for substrate consumption by thin layer chromatography. […] Time-dependent COX inhibition reactions were pre-incubated at 37° C. for varying lengths of time (0-30 minutes) with various concentrations of inhibitor. All reactions were performed with [1-^14C]-AA for 30 seconds at 37° C.; reactions were terminated and analyzed as described above.
To ensure that pseudo-first-order conditions were maintained, the enzymatic oxygenation reactions were terminated after 30 seconds to prevent extensive consumption of substrate. The decline of substrate conversion at different INDO concentrations was plotted against the pre-incubation times and fit to a single exponential decay with a plateau to determine kobs (FIG. 2).
The rate constant k2 represents the limiting forward rate constant for functionally irreversible inhibition, and KI corresponds to the inhibitor concentration that yields a rate equal to half of the limiting rate.

How did the “K−2^b (rate constant determined by reversible inhibition)” value (wild type mCOX-2 [1]) turn out when `COc1ccc2c(c1)c(CC(=O)O)cn2C(=O)c1ccc(Cl)cc1` [DM-INDO, 2-Des-methylindomethacin] was run?
Its value is 0.023 ± 0.001 s⁻¹.

And the “inhibition of ovine COX-1” value (wild type oCOX-1; concentrations up to 16 μM)?
The value was “does not appear to be inhibited at all”.

And the “inhibition in the time-dependent IC50 assay” value (wild type oCOX-1; wild type oCOX-1)?
Its value is “less than 20%”.

And the IC50 (wild type oCOX-1; wild type oCOX-1, 20 min pre-incubation, then 50 μM AA for 30 s)?
The IC50 was > 16 µM.

And the “off-rate constant slower than the on-rate” value (wild type mCOX-2 [2])?
The value was 14 fold.

And the “remaining activity approached (plateau) in time-dependent inhibition curves” value (wild type mCOX-2 [2])?
Its value is “about 30%”.

What about the “on-rate constant (k2) faster than for INDO” value (wild type mCOX-2 [2]; DM-INDO versus INDO) of the same compound?
The value was 14 fold.

And the Ki (wild type mCOX-2 [2]; time-dependent inhibition)?
Its Ki is 26 ± 7 µM.

And the k2 (wild type mCOX-2 [2]; time-dependent inhibition)?
The k2 was 0.80 ± 0.03 s⁻¹.

What about the “k−2” value (wild type mCOX-2 [2]; time-dependent inhibition) of the same compound?
Its value is 0.05 ± 0.02 s⁻¹.

Source: patent publication US8168656B2, “Indoleacetic acid and indenacetic acid derivatives as therapeutic agents with reduced gastrointestinal toxicity” (Vanderbilt University, priority 2009, dated 2012)
